According to paper PMC4322620 (Frontiers in Pharmacology, 2015):
Where a SMILES comes first, the peptide text is derived from it. [ ]: non-standard residue; d: D form. pGlu = O=C1CC[C@@H](C(=O)O)N1

Tests used:
[1] = molecular target: NTS1 (HT-29 cells) (Homo sapiens, UniProt P30989); test: cell-based
[2] = molecular target: neurotensin receptors (HT-29 cells) (Homo sapiens, UniProt P30989); type: cell-based
Chain of neurotensin receptors (HT-29 cells) (P30989 whole entry, looked up): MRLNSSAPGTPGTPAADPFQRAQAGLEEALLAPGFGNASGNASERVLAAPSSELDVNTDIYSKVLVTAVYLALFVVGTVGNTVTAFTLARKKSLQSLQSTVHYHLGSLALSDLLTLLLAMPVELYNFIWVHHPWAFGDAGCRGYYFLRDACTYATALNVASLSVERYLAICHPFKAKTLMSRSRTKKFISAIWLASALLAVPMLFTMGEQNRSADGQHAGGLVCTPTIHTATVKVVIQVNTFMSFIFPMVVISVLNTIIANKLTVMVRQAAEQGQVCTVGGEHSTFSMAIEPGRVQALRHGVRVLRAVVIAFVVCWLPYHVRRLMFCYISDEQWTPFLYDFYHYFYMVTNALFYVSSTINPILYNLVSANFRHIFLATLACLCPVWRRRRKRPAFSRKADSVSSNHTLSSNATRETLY

Chain of NTS1 (HT-29 cells) (P30989 whole entry, looked up): as above

CC[C@H](C)[C@H](NC(=O)[C@H](Cc1ccc(O)cc1)NC(=O)[C@@H]1CCCN1C(=O)[C@H](CCCNC(=N)N)NC(=O)[C@H](CCCNC(=N)N)NC(=O)[C@@H]1CCCN1C(=O)[C@H](CCC(=O)O)NC(=O)[C@H](CC(N)=O)NC(=O)[C@H](CCC(=O)O)NC(=O)[C@H](Cc1ccc(O)cc1)NC(=O)[C@H](CC(C)C)NC(=O)[C@@H]1CCC(=O)N1)C(=O)N[C@@H](CC(C)C)C(=O)O [[E6] NT]
EC50 [1]: 4.7 ± 1.4 nM
DC50 [2]: 57.5 ± 5.9 nM
DC50/EC50 [2]: 12

CC[C@H](C)[C@H](NC(=O)[C@H](Cc1ccc(O)cc1)NC(=O)[C@@H]1CCCN1C(=O)[C@H](CCCNC(=N)N)NC(=O)[C@H](CCCNC(=N)N)NC(=O)[C@@H]1CCCN1C(=O)[C@H](CCCCN)NC(=O)[C@H](CC(N)=O)NC(=O)[C@H](CCCCN)NC(=O)[C@H](Cc1ccc(O)cc1)NC(=O)[C@H](CC(C)C)NC(=O)[C@@H]1CCC(=O)N1)C(=O)N[C@@H](CC(C)C)C(=O)O [[K4] NT]
EC50 [1]: 1.4 ± 0.1 nM
DC50 [2]: 30.5 ± 6.2 nM
DC50/EC50 [2]: 22

CC[C@H](C)[C@H](NC(=O)[C@H](Cc1ccc(O)cc1)NC(=O)[C@@H]1CCCN1C(=O)[C@H](CCCCN)NC(=O)[C@H](CCCCN)NC(=O)[C@@H]1CCCN1C(=O)[C@H](CCCCN)NC(=O)[C@H](CC(N)=O)NC(=O)[C@H](CCC(=O)O)NC(=O)[C@H](Cc1ccc(O)cc1)NC(=O)[C@H](CC(C)C)NC(=O)[C@@H]1CCC(=O)N1)C(=O)N[C@@H](CC(C)C)C(=O)O [[K8, K9] NT] ([pGlu]LYENKPKKPYIL-OH)
EC50 [1]: 20.2 ± 5.2 nM
DC50 [2]: 67 ± 18.1 nM
DC50/EC50 [2]: 3.3

CC[C@H](C)[C@H](NC(=O)[C@H](Cc1ccc(O)cc1)NC(=O)[C@@H]1CCCN1C(=O)[C@H](CCCNC(=N)N)NC(=O)[C@H](CCCNC(=N)N)NC(=O)[C@@H]1CCCN1C(=O)[C@H](CCCCN)NC(=O)[C@H](CC(N)=O)NC(=O)[C@H](C)NC(=O)[C@H](Cc1ccc(O)cc1)NC(=O)[C@H](CC(C)C)NC(=O)[C@@H]1CCC(=O)N1)C(=O)N[C@@H](CC(C)C)C(=O)O [[A4] NT]
EC50 [1]: 0.6 ± 0.1 nM
DC50 [2]: 11.7 ± 1.4 nM
DC50/EC50 [2]: 20
